“And” between values parts separate entries of the source, which are not always exact repeats. Equal entries are not always repeated. Where two headings read alike, the source gives them in different places.
Experiments:
CDK6/cyclin D1 = CDK6/cyclin D1 (Homo sapiens, UniProt Q00534); test: Kinase IC50, 33P labeled isotope method; type: biochemical
[1] = Measurement of water solubility; type: physicochemical; conditions: thermodynamic from solid, distilled water, 25° C.
Protocol: An excess quantity of sample was added into a 50 mL triangular flask, to which 10 mL distilled water was added, and then the flask was vibrated in a Constant Temperature Vibrator at 25° C. for 72 h. The solution was centrifuged at 10000 r/min for 15 min and then the supernatant was filtrated with […] microfiltration membrane to remove undissolved drug. 2 mL filtrate was metered with methanol to 10 ml. The content of drug was determined with 20 μL sample injection.

[2] = Pharmacokinetics after single oral dose in rats; type: in vivo, Wistar rat
Protocol: 300 μL blood collected from the rat was mixed with 30 μL methanol and 2 mL ethyl acetate. The samples were vortexed for 3 min and centrifuged at 4000 rpm for 15 min. The supernatant was introduced into another centrifugal tube. The lower layer was repeatedly extracted and then the supernatants were combined and dried with nitrogen gas. After redissolution with 150 μL methanol, they were filtered by 0.22 μm membrane and then subjected to analysis with a injection volume of 20 μL.
An amount of compound was taken accurately to prepare CMC-Na aqueous solution containing 3 mg/mL of drug. 12 healthy male Wister rats were randomly assigned to two groups, each group including 6 rats. The first group was administrated orally compound 1. The second group was administrated orally compound 2. The doses were both 30 mg/kg (corresponding to 2 mL for each rat). The rats were fasting for 12 h before administration and free access to water. 0.6 mL blood samples were collected at 0.5, 1, 1.5, 2, 2.5, 3, 5, 8, 12 and 24 h after drug administration from the venous sinuses and added into EP tubes which were rinsed with heparin sodium previously. The samples were centrifuged at 4,000 r/min for 15 min and the upper plasma were obtained. 300 μL plasma was subjected to analysis and the chromatogram and peak area were recorded. The plasma concentrations of compounds 1 and 2 were calculated to give average concentration-time curve.
DAS 2.0 program was used to analyze plasma concentration vs. time data after s single oral dose (Table 6, 7). Fitting and the AIC methods were used to determine the model. The analysis was based on the principle that the larger fitting and the smaller AIC, the better model. The oral administration was consistent with the two-compartment model. The statistical distance parameter is used to compare the 2 compounds for the pharmacokinetic parameters.

[3] = male, Wistar, plasma, rat, oral 30 mg/kg

Sequence of CDK6/cyclin D1 (Q00534 13-300 limits assumed): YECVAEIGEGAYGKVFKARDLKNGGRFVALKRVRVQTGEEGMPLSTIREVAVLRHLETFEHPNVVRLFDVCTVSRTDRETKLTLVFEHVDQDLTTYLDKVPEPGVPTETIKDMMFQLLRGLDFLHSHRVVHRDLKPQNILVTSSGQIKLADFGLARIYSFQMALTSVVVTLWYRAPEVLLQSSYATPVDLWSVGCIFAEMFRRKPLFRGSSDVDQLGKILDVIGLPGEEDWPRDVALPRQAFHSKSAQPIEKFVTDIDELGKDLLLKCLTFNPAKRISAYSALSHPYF
Sequence of CDK6/cyclin D1 (P24385 whole entry partner): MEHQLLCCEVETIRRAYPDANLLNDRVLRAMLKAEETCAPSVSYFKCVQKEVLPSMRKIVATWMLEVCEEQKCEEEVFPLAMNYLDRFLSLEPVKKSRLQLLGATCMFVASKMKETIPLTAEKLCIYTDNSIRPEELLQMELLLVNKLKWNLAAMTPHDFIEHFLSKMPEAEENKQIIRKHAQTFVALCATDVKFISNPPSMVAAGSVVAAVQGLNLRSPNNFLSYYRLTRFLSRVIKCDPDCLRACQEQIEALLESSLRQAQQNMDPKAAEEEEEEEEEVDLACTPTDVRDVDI

## Cc1cc2c(Nc3c[nH]nc3C(=O)Nc3ccc(CN4CCN(C)CC4)cc3)ncnc2s1 [Compound I-3, 4-(4-(6-methylthieno[2,3-d]pyrimidinyl)amino)-N-(4-((4-methyl-1-piperazinyl)methyl)phenyl)-1H-3-pyrazolecarboxamide]
CDK6/cyclin D1; 20 μM ATP, read-out: IC50* CDK6/cyclin D1
  IC50: 4 nM

## CN1CCN(Cc2ccc(NC(=O)c3n[nH]cc3Nc3ncnc4[nH]ccc34)cc2)CC1 [Compound I-11, 4-(4-(7H-pyrrolo[2,3-d]pyrimidinyl)amino)-N-(4-((4-methyl-1-piperazinyl)methyl)phenyl)-1H-3-pyrazolecarboxamide]
CDK6/cyclin D1
  IC50: 4 nM

## O=C(Nc1ccc(CN2CCOCC2)cc1)c1n[nH]cc1Nc1ncnc2sccc12 [Compound I-2, 4-(4-thieno[2,3-d]pyrimidinylamino)-N-(4-((4-morpholinyl)methyl)phenyl)-1H-3-pyrazolecarboxamide]
[1]
  solubility at 72 h: < 0.08 µg/mL
[2]; [3]
  Cmax: 265 ± 52.9 ng/mL
  Tmax: 14 ± 5.29 h
  half-life: 14.7 ± 4.23 h
[2]; male, Wistar, plasma, rat, oral 30 mg/kg, read-out: AUC 0-24
  AUC(0-t): 4350 ± 1300 ng·h/mL
[2]; male, Wistar, plasma, rat, oral 30 mg/kg, read-out: MRT 0-24
  MRT last: 13.8 ± 1.29 h
[2]; male, Wistar, rat, plasma, po, 30 mg/kg, mean of rats, oral 30 mg/kg, time 0.5 h, read-out: Plasma concentration, mean
  concentration at 0.5 h: 50.8 ng/mL
[2]; male, Wistar, rat, plasma, po, 30 mg/kg, mean of rats, oral 30 mg/kg, time 1 h, read-out: Plasma concentration, mean
  concentration at 1 h: 85.3 ng/mL
[2]; male, Wistar, rat, plasma, po, 30 mg/kg, mean of rats, oral 30 mg/kg, time 2 h, read-out: Plasma concentration, mean
  concentration at 2 h: 53.2 ng/mL
[2]; male, Wistar, rat, plasma, po, 30 mg/kg, mean of rats, oral 30 mg/kg, time 2.5 h, read-out: Plasma concentration, mean
  concentration at 2.5 h: 57.6 ng/mL
[2]; male, Wistar, rat, plasma, po, 30 mg/kg, mean of rats, oral 30 mg/kg, time 3 h
  concentration at 3 h: 64.5 ng/mL
[2]; male, Wistar, rat, plasma, po, 30 mg/kg, mean of rats, oral 30 mg/kg, time 5 h
  concentration at 5 h: 122 ng/mL
[2]; male, Wistar, rat, plasma, po, 30 mg/kg, mean of rats, oral 30 mg/kg, time 8 h, read-out: Plasma concentration, mean
  concentration at 8 h: 162 ng/mL
[2]; male, Wistar, rat, plasma, po, 30 mg/kg, mean of rats, oral 30 mg/kg, time 12 h, read-out: Plasma concentration, mean
  concentration at 12 h: 264 ng/mL
[2]; male, Wistar, rat, plasma, po, 30 mg/kg, mean of rats, oral 30 mg/kg, time 24 h
  concentration at 24 h: 157 ng/mL
[2]; male, Wistar, rat, plasma, po, 30 mg/kg, rat No. 1-6, oral 30 mg/kg, time 2.5 h, read-out: Plasma concentration, individual rats
  concentration at 2.5 h: 72.9 ng/mL
[2]; male, Wistar, rat, plasma, po, 30 mg/kg, rat No. 1-6, oral 30 mg/kg, time 12 h, read-out: Plasma concentration, individual rats
  concentration at 12 h: 253 ng/mL
[2]; rat No. 1-6, oral 30 mg/kg, time 0.5 h, 30 mg/kg
  Plasma concentration, individual rats: 29.26 ng*ml/1 and 123.49 ng*ml/1 and 25.98 ng*ml/1 and 24.36 ng*ml/1
[2]; rat No. 1-6, oral 30 mg/kg, time 1 h, 30 mg/kg
  Plasma concentration, individual rats: 208.71 ng*ml/1 and 28.68 ng*ml/1 and 18.66 ng*ml/1
[2]; rat No. 1-6, oral 30 mg/kg, time 2 h, 30 mg/kg
  Plasma concentration, individual rats: 53.04 ng*ml/1 and 88.44 ng*ml/1 and 37.16 ng*ml/1 and 47.57 ng*ml/1 and 47.03 ng*ml/1 and 46.08 ng*ml/1
[2]; rat No. 1-6, oral 30 mg/kg, time 2.5 h, 30 mg/kg
  Plasma concentration, individual rats: 74.79 ng*ml/1 and 57.6 ng*ml/1 and 39.48 ng*ml/1 and 49.89 ng*ml/1 and 51.04 ng*ml/1
[2]; rat No. 1-6, oral 30 mg/kg, time 3 h, 30 mg/kg
  Plasma concentration, individual rats: 81.11 ng*ml/1 and 87.89 ng*ml/1 and 57.21 ng*ml/1 and 41.79 ng*ml/1 and 65.08 ng*ml/1 and 53.93 ng*ml/1
[2]; rat No. 1-6, oral 30 mg/kg, time 5 h, 30 mg/kg
  Plasma concentration, individual rats: 124.06 ng*ml/1 and 272.93 ng*ml/1 and 86.12 ng*ml/1 and 78.03 ng*ml/1 and 94.32 ng*ml/1 and 76.64 ng*ml/1
[2]; rat No. 1-6, oral 30 mg/kg, time 8 h, 30 mg/kg
  Plasma concentration, individual rats: 196.61 ng*ml/1 and 263.95 ng*ml/1 and 119.66 ng*ml/1 and 82.66 ng*ml/1 and 121.59 ng*ml/1 and 186.27 ng*ml/1
[2]; rat No. 1-6, oral 30 mg/kg, time 12 h, 30 mg/kg
  Plasma concentration, individual rats: 345.56 ng*ml/1 and 229.22 ng*ml/1 and 256.32 ng*ml/1 and 213.94 ng*ml/1 and 286.97 ng*ml/1
[2]; rat No. 1-6, oral 30 mg/kg, time 24 h, 30 mg/kg
  Plasma concentration, individual rats: 198.92 ng*ml/1 and 97.83 ng*ml/1 and 209.56 ng*ml/1 and 221.75 ng*ml/1 and 74.79 ng*ml/1 and 138.91 ng*ml/1
[2]; rat, oral 30 mg/kg
  pharmacokinetic parameters (in words): acceptable

From US9550792B2, “Polycyclic substituted pyrazole kinase activity inhibitors and use thereof” (priority 2013, dated 2017)
